{"source": "patent US9119821B2", "about": "“Use of methionine sulfoximine to treat acute liver failure and other diseases caused by an inflammatory cytokine response” (priority 2010, dated 2015)", "key": {"[1]": {"conditions": "i.p. injection of 50 mg/kg"}, "IL-6": {"test_system": "IL-6", "conditions": "3 hours after LPS/D-GalN; without MSO peak 401±14 at two hours", "from_the_text": "(§1) FIG. 6A, FIG. 6B, and FIG. 6C illustrate ELISA quantitation cytokine levels in plasma from LPS/D-GalN treated mice. The time zero values show the levels of each cytokine in negative control mice, not treated with LPS/D-GalN but injected with either saline (n=7) or MSO (n=7) three hours prior to be killed. […] For each cytokine, open circles represent cytokine levels in plasma isolated from mice pretreated with saline, and open diamonds represent cytokine levels in plasma isolated from mice pretreated with MSO prior to LPS/D-GalN treatment. FIG. 6A illustrates TNF-α levels. FIG. 6B illustrates IFN-γ levels. FIG. 6C illustrates IL-6 levels; and\n(§2) Tissue and plasma were collected from male mice, which were divided into two groups. One group was injected with saline three hours prior to LPS/D-GalN injections. The second group was given MSO three hours prior to being injected with LPS/D-GalN. Control mice (t=0) were treated with MSO or saline for 3 hours and then euthanized (not exposed to LPS/D-GalN). After LPS/D-GalN injection at time zero, tissue and plasma samples were collected at one-hour time intervals from 1 to 5 hours.\n(§3) Plasma was obtained by transferring blood to plasma separator tubes containing lithium heparin (BD Microtainer tubes). Plasma samples were immediately frozen on dry ice and stored at −80° C.\n(§4) TNF-α, IFN-γ, and IL-6 ELISA kits were obtained from eBioscience, and experiments were performed using the manufacturer's guidelines for 96-well plate experiments. One hundred microliters of plasma was used per well."}, "IFN-γ": {"test_system": "IFN-γ", "from_the_text": "as §1, §2, §3, §4"}, "TNF-α": {"test_system": "TNF-α", "from_the_text": "as §1, §2, §3, §4"}, "[2]": {"test_system": "CD1 mice injected with Jo2 antibody", "conditions": "mouse, in vivo", "method": "Animals were divided into two groups. Group one animals consisted of both male and female mice injected with LPS and D-GalN to induce hepatic failure. Survival was monitored post LPS/D-GalN administration and the time of injection was considered to be zero hour (t=0). Group two animals consisted of mice injected with MSO three hours prior to LPS and D-GalN administration. […] MSO (50 mg/kg body weight, Sigma #M5379) was also prepared in saline and administered IP. For analysis of the effect of MSO treatment on the cell death pathway activated by the Fas ligand, mice were pre-treated with MSO as described above, and at time zero were injected with Jo2 antibody ([…]).\n(§5) Animals were monitored continuously post LPS/D-GalN or Jo2 administration. […] The time of death was recorded as hours after LPS/D-GalN injection. Fisher's exact test was used to determine two-tailed p values for the statistical between the treated and untreated groups."}, "peritoneal macrophages": {"test_system": "peritoneal macrophages", "conditions": "9 mM MSO, over the time course of the macrophage experiments", "method": "Macrophages coordinate the early phases of LPS-induced inflammatory response, through the synthesis of TNF-α and other cytokines. In vitro experiments were conducted to directly test if MSO inhibits TNF-α production on LPS-stimulated macrophages obtained from mouse peritoneum. Macrophages were triggered with LPS with or without MSO, wherein the MSO was added either three hours before, one hour after, or at the same time as LPS. Four hours after LPS addition, TNF-α in the culture supernatant was quantitated by ELISA, as described in Methods."}, "[3]": {"test_system": "CD1 mice treated with LPS/D-GalN", "experiment": "Survival of mice with LPS/D-GalN induced acute liver failure", "format": "in vivo, mouse", "conditions": "50 mg/kg IP three hours prior to LPS/D-GalN", "from_the_text": "Six to eight week old CD1 mice are obtained from Charles River. Animals were housed in Wayne State University or University of Padova, Vallisneri Interdepartmental Complex animal quarters until the time of the experiment. Food was withdrawn the night before the day of the experiment. All experiments were approved by the Animal Investigation Committee of Wayne State University or by the Authority of the University of Padova and authorized by the Italian Ministry of Health.\nAnimals were divided into two groups. Group one animals consisted of both male and female mice injected with LPS and D-GalN to induce hepatic failure. Survival was monitored post LPS/D-GalN administration and the time of injection was considered to be zero hour (t=0). Group two animals consisted of mice injected with MSO three hours prior to LPS and D-GalN administration. […] […] For analysis of the effect of MSO treatment on the cell death pathway activated by the Fas ligand, mice were pre-treated with MSO as described above, and at time zero were injected with Jo2 antibody ([…]).\nas §5"}, "[4]": {"biological_target": "γ-glutamylcysteine synthetase (GGCS) (Mus musculus, UniProt P97494)", "sequence (P97494 whole entry)": "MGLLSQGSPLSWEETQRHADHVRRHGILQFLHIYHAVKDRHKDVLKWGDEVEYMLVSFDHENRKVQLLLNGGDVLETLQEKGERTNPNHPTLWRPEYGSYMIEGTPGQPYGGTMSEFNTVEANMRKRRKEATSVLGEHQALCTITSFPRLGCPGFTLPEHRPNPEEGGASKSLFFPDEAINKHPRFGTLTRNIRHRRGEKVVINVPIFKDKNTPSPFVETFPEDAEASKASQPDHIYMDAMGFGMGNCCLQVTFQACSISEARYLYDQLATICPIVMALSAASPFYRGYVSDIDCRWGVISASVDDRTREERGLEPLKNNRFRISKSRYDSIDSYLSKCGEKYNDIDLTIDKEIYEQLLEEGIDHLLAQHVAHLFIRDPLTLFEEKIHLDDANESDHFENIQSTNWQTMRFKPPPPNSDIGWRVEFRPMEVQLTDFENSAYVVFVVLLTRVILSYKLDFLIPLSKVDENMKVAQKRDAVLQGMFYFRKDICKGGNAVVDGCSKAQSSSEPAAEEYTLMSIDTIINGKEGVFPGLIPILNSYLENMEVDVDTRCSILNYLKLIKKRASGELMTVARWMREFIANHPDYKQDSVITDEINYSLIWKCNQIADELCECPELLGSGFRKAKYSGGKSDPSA", "sequence (O09172 whole entry partner)": "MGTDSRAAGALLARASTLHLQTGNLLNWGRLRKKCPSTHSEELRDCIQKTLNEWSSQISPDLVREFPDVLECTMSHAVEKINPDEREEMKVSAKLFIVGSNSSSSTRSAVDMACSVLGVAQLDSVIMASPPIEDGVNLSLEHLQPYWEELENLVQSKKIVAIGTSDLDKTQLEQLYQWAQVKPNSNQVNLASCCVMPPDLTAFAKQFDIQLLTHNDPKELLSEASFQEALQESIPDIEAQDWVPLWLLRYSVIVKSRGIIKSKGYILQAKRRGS", "conditions": "liver extracts from LPS/D-GalN treated mice; 50 mg/kg; data not shown", "method": "as §2\nTo analyze enzyme activities liver homogenates were prepared from liver tissue excised and immediately homogenized in ice-cold buffer consisting of 250 mM sucrose, 10 mM Tris and 0.1 mM EGTA with protease inhibitor cocktail (Sigma #P8340). The homogenized tissue was centrifuged at 2375×g for 5 min. […]\nGlutamine synthetase was assayed as described by Meister, A. Glutamine synthetase from mammalian tissues. […] The reaction with the substrates glutamine and hydroxylamine was stopped using ferric chloride stop solution (0.37 M FeCl3, 0.67 M HCl, 0.20 M TCA) and the colorimetric product formed—γ-glutamyl hydroxamate—was measured at 535 nm. The absorbance values were converted to activities by comparison to a standard curve of pure glutamyl hydroxamate (a generous gift from Arthur J. Cooper, Department of Biochemistry and Molecular Biology, New York Medical College)."}, "MLP 29 cells": {"test_system": "MLP 29 cells", "experiment": "Flow cytometry of apoptosis induced by TNF-α plus actinomycin D", "format": "cell-based, mouse", "procedure": "Output of multiparametric FACS analyses. Mouse liver progenitor cells, MLP 29, are incubated for one hour with either no addition (first lane, FIG. 3C(a)), 9 mM MSO (second lane, FIG. 3C(b)), or 9 mM BSO (third lane, FIG. 3C(c)), then exposed for 10 hours to either no addition—(BAS, first column), TNF-α plus actinomycin D (second column), or actinomycin D alone (third column). Viable cells (V) are delimited by the quadrant. Apoptotic cells display mitochondrial depolarization (reduced TMRM staining) and/or expose phosphatidylserine on their surface (increased Annexin V-FITC staining). Propidium iodide-positive, i.e. dead cells (PI), are evaluated on a PI vs TMRM diagram (not shown); these cells are excluded from the reported plots, but the percentage of propidium iodide positive (i.e. dead) cells is shown in each box (PI), as is the percentage of viable cells (V);\nSamples were analyzed on a FACSCalibur flow cytometer (Becton Dickinson, San Diego, Calif.). Data acquisition was performed using CellQuest software and data analysis with WinMD1 software. Each experiment was repeated at least four times."}}, "note": "Read-outs that look alike come from different tables or passages of the source."}
{"smiles": "CS(=N)(=O)CC[C@H](N)C(=O)O", "note": "(stereo partly shown) [MSO, methionine sulfoximine]", "values": [{"measurement": "lowering of plasma glutamine concentrations", "setting": "[1]", "value": "about 50%"}, {"measurement": "plasma IL-6 level, peak, mean ± SEM", "setting": "IL-6", "value": "325 ± 27", "unit": "pg/mL"}, {"measurement": "plasma IFN-γ level", "setting": "IFN-γ; 1 hour after LPS/D-GalN, without MSO 0.84±0.25", "value": "0.19 ± 0.05", "unit": "pg/mL"}, {"measurement": "plasma IFN-γ level", "setting": "IFN-γ; 4 hours after LPS/D-GalN, without MSO 41±11, p 0.01", "value": "5.0 ± 3.0", "unit": "pg/mL"}, {"measurement": "plasma TNF-α level throughout the time course", "setting": "TNF-α; 1 to 5 hours after LPS/D-GalN", "value": "< 200", "unit": "pg/mL"}, {"measurement": "plasma TNF-α level, peak, mean ± SEM", "setting": "TNF-α; 1 hour after LPS/D-GalN, saline pretreated 590±91, p<0.001", "value": "112 ± 35", "unit": "pg/mL"}, {"measurement": "plasma TNF-α level in control mice", "setting": "TNF-α; t=0, injected three hours previously, not exposed to LPS/D-GalN, n=7", "value": "not detectable"}, {"measurement": "effect on survival after Fas pathway induction", "setting": "[2]", "value": "no effect on survival"}, {"measurement": "effect on cell viability (trypan blue)", "setting": "peritoneal macrophages", "value": "no effect"}, {"measurement": "female survival", "setting": "[3]; female CD1 mice, n=14, without pretreatment 27%, p<0.005", "value": 81, "unit": "%"}, {"measurement": "male survival", "setting": "[3]; male CD1 mice, n=21, without pretreatment 19%, p<0.002", "value": 71, "unit": "%"}, {"measurement": "GGCS activity versus saline pre-treated mice", "setting": "[4]", "value": "same GGCS activities as extracts from mice pre-treated with saline"}, {"measurement": "rescue of cells from apoptosis induced by TNF-α", "setting": "MLP 29 cells", "value": "neither MSO nor BSO could rescue cells"}]}
